Our source for the IC50 values is patent US20250197372A1 (priority 2020, published 2025).

The structures appear in SMILES notation. Some results are limits rather than exact numbers.

Holding throughout (format): biochemical
The target in assay [1] is rat maltase (partially purified alpha-glucosidase from intestinal rat powder). As to the kind of experiment: Intestinal alpha-glucosidase assay, maltose substrate (Glucose GO Kit). An outline of the steps: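 Glucose release is the read-out: compounds at multiple dilutions are first held with partially purified rat intestinal alpha-glucosidase for 60 min at 37 °C, after which maltose or sucrose substrate reacts for 30 min at 37 °C before a 5 min 90 °C stop. IC50 comes from a four-parameter logistic fit.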

The target in assay [2] is T1, recombinant alpha-glucosidase II (murine full-length glucosidase II, alpha and beta subunits, Glu 2) (Mus musculus, UniProt Q8BHN3).
T1 construct: made in house; host or cells: HEK-293T cells transduced with BacMam viruses (75% alpha, 25% beta); protein harvested from culture supernatant
As to the kind of experiment: Alpha-glucosidase II assay (4-methylumbelliferyl-alpha-D-pyranoside substrate, fluorescence). The following applies: Glucosidase 2; read-out: Glu2 IC50.

In assay [3] the target is T2, recombinant alpha-glucosidase I (human full-length glucosidase I, Glu 1) (Homo sapiens, UniProt Q13724).
T2 construct: 6-His (C); made in house; host or cells: HEK-293T cells transduced with BacMam virus (virus raised in Sf9)
T2 sequence (Q13724 1-837): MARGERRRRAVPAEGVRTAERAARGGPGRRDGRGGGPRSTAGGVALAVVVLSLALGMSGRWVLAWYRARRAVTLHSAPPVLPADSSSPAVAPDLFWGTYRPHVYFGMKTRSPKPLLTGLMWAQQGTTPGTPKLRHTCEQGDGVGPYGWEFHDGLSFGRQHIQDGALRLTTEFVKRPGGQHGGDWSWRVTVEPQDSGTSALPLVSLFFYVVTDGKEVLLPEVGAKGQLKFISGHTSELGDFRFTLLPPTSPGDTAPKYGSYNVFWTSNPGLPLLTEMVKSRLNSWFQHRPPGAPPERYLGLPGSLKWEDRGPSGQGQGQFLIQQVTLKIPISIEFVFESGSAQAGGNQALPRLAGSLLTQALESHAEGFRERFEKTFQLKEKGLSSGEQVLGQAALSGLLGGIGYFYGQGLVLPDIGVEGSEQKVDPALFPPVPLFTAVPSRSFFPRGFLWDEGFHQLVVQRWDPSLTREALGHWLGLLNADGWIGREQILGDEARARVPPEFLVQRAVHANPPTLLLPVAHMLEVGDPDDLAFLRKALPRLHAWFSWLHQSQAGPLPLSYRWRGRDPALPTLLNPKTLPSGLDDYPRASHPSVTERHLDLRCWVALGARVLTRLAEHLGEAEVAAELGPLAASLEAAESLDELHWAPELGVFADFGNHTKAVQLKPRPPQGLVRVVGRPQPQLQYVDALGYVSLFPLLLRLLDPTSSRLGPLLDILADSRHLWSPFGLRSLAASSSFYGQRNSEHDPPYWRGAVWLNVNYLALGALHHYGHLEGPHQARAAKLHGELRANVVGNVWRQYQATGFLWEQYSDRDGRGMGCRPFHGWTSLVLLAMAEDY
As to the kind of experiment: Alpha-glucosidase I assay (Amplex Red glucose detection, synthetic trisaccharide substrate). The settings on record: Glucosidase 1; read-out: Glu 1 IC50. An outline of the steps:
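Human full-length glucosidase I, His-tagged, […] and Ni-purified. Enzyme preincubated with compound dilutions 60 min at 37° C, then synthetic trisaccharide substrate 90 min at 37° C; stopped with 1.5M Tris pH 8.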

In assay [4] the target is rat sucrase (partially purified alpha-glucosidase from intestinal rat powder) (Rattus norvegicus, UniProt P23739). The assay is described as follows: Intestinal alpha-glucosidase assay, sucrose substrate (Glucose GO Kit). An outline of the steps: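 Partially purified rat intestinal alpha-glucosidase preincubated 60 min at 37 °C with serial compound dilutions, then sucrose substrate added for 30 min at 37 °C. Reaction stopped by 5 min at 90 °C; released glucose detected with Glucose GO kit. IC50 from 4-PL fit of % inhibition vs concentration.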
Sequence of rat sucrase (partially purified alpha-glucosidase from intestinal rat powder) (P23739 whole entry): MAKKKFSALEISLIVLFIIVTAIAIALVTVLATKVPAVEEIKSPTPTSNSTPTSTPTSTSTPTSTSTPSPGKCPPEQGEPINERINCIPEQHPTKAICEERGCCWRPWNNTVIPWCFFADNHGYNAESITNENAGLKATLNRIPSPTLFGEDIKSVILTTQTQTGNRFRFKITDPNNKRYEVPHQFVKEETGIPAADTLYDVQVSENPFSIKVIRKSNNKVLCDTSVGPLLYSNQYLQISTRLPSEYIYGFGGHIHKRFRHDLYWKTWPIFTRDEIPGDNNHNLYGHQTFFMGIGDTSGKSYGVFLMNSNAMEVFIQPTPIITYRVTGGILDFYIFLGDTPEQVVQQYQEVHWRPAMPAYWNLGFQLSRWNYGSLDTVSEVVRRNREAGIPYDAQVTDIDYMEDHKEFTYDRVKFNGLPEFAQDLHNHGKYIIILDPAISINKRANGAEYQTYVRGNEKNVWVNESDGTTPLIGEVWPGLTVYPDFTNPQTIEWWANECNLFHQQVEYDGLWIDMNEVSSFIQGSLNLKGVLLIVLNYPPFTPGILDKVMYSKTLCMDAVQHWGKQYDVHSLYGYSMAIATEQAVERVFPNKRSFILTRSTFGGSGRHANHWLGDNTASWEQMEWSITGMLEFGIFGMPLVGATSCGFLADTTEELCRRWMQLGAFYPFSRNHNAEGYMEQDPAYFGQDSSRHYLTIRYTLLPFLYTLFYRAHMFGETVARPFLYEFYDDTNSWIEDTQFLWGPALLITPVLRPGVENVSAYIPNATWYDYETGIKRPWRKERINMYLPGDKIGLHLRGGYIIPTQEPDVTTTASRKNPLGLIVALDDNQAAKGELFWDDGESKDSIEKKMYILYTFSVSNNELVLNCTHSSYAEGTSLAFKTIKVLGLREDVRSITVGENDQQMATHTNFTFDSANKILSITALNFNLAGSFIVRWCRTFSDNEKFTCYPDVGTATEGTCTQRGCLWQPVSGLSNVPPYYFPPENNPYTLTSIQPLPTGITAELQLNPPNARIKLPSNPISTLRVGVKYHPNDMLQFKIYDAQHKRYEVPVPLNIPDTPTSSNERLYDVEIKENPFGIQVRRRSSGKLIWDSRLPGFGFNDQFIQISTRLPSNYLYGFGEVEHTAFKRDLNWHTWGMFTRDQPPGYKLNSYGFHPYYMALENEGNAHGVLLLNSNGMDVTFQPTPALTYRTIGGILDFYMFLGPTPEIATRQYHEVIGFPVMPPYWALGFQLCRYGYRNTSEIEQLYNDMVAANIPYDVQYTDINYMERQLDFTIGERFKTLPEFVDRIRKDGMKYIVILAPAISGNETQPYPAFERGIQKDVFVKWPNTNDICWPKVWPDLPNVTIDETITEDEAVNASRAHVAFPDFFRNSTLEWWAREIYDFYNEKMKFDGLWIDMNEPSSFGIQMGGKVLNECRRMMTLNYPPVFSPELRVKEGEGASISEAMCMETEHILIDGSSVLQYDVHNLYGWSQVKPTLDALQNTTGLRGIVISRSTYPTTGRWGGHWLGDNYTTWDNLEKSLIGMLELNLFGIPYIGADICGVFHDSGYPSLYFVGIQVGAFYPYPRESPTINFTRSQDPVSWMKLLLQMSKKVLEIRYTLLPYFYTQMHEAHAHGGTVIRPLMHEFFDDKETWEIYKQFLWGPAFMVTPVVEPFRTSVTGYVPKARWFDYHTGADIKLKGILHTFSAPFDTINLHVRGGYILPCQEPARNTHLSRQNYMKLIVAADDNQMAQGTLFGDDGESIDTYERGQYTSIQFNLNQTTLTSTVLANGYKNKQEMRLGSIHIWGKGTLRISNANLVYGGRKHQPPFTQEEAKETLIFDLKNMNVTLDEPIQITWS

T1 sequence (O08795 15-521): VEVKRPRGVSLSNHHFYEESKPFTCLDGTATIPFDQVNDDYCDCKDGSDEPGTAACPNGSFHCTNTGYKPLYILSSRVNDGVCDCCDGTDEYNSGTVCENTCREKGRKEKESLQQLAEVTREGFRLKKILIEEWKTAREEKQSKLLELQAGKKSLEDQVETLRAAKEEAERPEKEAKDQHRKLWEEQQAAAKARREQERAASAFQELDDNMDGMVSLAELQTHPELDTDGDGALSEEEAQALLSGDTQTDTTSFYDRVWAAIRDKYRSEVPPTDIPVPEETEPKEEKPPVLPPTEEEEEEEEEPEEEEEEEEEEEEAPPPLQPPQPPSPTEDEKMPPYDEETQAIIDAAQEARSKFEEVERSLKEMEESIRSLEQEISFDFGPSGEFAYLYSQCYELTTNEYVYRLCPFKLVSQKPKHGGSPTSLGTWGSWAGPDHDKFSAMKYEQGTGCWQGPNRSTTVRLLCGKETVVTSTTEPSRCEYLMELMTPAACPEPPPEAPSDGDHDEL
T1 sequence (Q8BHN3 33-944): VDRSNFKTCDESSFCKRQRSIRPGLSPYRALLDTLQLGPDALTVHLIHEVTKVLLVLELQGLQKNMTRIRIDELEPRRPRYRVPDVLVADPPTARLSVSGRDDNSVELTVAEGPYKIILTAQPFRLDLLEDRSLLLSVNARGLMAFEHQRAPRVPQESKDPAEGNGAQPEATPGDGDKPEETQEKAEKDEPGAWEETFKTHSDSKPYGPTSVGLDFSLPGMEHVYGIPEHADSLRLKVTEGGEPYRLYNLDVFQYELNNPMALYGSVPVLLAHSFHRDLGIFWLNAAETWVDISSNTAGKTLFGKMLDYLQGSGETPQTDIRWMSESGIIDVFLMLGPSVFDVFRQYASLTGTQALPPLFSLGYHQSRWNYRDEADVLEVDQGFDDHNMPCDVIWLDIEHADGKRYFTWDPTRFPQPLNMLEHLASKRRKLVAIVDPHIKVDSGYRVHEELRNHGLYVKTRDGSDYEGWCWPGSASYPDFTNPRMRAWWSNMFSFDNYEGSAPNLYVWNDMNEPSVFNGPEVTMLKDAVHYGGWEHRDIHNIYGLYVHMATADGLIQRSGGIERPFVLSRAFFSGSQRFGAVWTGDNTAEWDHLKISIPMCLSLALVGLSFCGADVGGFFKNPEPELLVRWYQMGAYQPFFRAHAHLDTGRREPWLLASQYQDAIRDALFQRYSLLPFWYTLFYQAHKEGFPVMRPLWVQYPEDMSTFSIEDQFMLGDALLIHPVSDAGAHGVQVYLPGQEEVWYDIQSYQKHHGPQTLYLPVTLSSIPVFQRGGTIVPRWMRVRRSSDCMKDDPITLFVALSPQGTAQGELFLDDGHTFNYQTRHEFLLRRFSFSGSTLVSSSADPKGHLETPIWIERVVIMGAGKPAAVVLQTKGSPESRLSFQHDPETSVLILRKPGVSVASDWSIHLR

Consider `OC[C@@H]1[C@@H](O)[C@H](O)[C@@H](O)CN1Cc1cccc(CNc2cc(-c3ncccn3)cc(C3CC3)c2)n1` [Compound 1333, (2R,3R,4R,5S)-1-{[6-({[3-cyclopropyl-5-(pyrimidin-2-yl)phenyl]amino}methyl)pyridin-2-yl]methyl}-2-(hydroxymethyl)piperidine-3,4,5-triol], for which the IC50 was 846 nM in assay [1], more than 100000 nM in assay [2], 4530 nM in assay [3] and 1590 nM in assay [4].

Turning to `Cc1cc(NCc2cccc(CN3C[C@H](O)[C@@H](O)[C@H](O)[C@H]3CO)n2)cc(-c2ccco2)c1` [Compound 1334, (2R,3R,4R,5S)-1-{[6-({[3-(furan-2-yl)-5-methylphenyl]amino}methyl)pyridin-2-yl]methyl}-2-(hydroxymethyl)piperidine-3,4,5-triol], the IC50 in assay [1] was 224 nM; in assay [2], more than 100000 nM; in assay [3], 1080 nM; in assay [4] it was 336 nM.

Turning to `Cc1cc(NCc2cccc(CN3C[C@H](O)[C@@H](O)[C@H](O)[C@H]3CO)n2)cc(N2CCOCC2)c1` [Compound 1336, (2R,3R,4R,5S)-2-(hydroxymethyl)-1-{[6-({[3-methyl-5-(morpholin-4-yl)phenyl]amino}methyl)pyridin-2-yl]methyl}piperidine-3,4,5-triol], the half-inhibitory concentration (IC50) is 9990 nM in assay [1], more than 100000 nM in assay [2], 30300 nM in assay [3] and 21300 nM in assay [4].

As for `COc1ccc(C#CCCCCCN2C[C@H](O)[C@@H](O)[C@H](O)[C@H]2CO)cc1` [Compound 1338, (2R,3R,4R,5S)-2-(hydroxymethyl)-1-[7-(4-methoxyphenyl)hept-6-yn-1-yl]piperidine-3,4,5-triol], the IC50 was found to be 146 nM in assay [1], 109 nM in assay [2], 999 nM in assay [3] and 371 nM in assay [4].

A word on the IC50: it is the concentration that gives 50% inhibition.
